Where two headings read alike, the source gives them in different places.
Tested on: cancer cell lines from the cancer cell line encyclopedia (CCLE)
Assay: Cell line profiling (CLiP) proliferation experiment
Type: cell-based
Details: Homo sapiens; for IC50: read-out: Crossing Point; for EC50: read-out: Inflection Point
Protocol: Compound profiling experiment and data analysis was performed as previously described. Data was imported and plotted using the Tibco Spotfire DXP application. Lines were categorized as sensitive, intermediate and refractory as follows: Amax<-40 & Inflection Point <2 ~ Sensitive, Amax>-20 & Inflection Point >10 ~ Refractory, all else were called Intermediate. Cancer Cell line HG-U133 Plus 2 data was processed and normalized as described. […] Five sets of refractory cell lines were generated from the pool of refractory cell lines trying to match the lineage composition of the set of sensitive cell lines. The limma package was used as previously described to perform the statistical comparison.

[1] = CHP-212, CHP-212, autonomic_ganglia, NS
[2] = COLO 205, COLO 205, large_intestine, adenocarcinoma
[3] = COLO-668, COLO 668, lung, small_cell_carcinoma
[4] = COR-L279, COR-L279, lung, small_cell_carcinoma
[5] = Calu-6, Calu-6, lung, undifferentiated_carcinoma
[6] = DMS-114, DMS 114, lung, small_cell_carcinoma
[7] = DMS-273, DMS 273, lung, small_cell_carcinoma
[8] = DOHH-2, cell line DOHH-2, haematopoietic_and_lymphoid_tissue
[9] = EFM-19, cell line EFM-19, breast
[10] = FaDu, cell line FaDu, upper_aerodigestive_tract
[11] = G-401, cell line G-401, soft_tissue
[12] = HCC1143, cell line HCC1143, breast

Question: For `CC(C)[C@@]12C[C@@H](O)[C@@](C)(O1)[C@@H]1CC[C@@H](C)[C@H]1[C@@H]2OC(=O)/C=C/c1ccccc1` [Englerin B], which IC50 (CHL-1, CHL-1, skin, NS) is on record?
Answer: 26.2 µM

Question: And the IC50 (CHL-1, CHL-1 cells)?
Answer: 26.2 µM

Question: And the IC50 [1]?
Answer: 22.7 µM

Question: And the EC50 [1]?
Answer: 13.9 µM

Question: What about the EC50 (CHP-212, CHP-212 cells) of the same compound?
Answer: 13.9 µM

Question: And the IC50 (CMK, CMK cells)?
Answer: > 30 µM

Question: What about the IC50 [2] of the same compound?
Answer: 16.5 µM

Question: What about the EC50 [2] of the same compound?
Answer: 11.8 µM

Question: What about the EC50 (COLO 205, COLO 205 cells) of the same compound?
Answer: 11.8 µM

Question: What about the IC50 (COLO 320, COLO-320, large_intestine, adenocarcinoma) of the same compound?
Answer: 11 µM

Question: What about the IC50 [3] of the same compound?
Answer: 26 µM

Question: And the EC50 [3]?
Answer: 26 µM

Question: And the IC50 (COLO-668, COLO 668 cells)?
Answer: 26 µM

Question: What about the EC50 (COLO-668, COLO 668 cells) of the same compound?
Answer: 26 µM

Question: What about the IC50 (COLO-680N, COLO-680N (oesophagus)) of the same compound?
Answer: > 30 µM

Question: And the IC50 (COLO-680N, oesophagus, squamous_cell_carcinoma)?
Answer: > 30 µM

Question: And the IC50 (COLO-741, COLO 741, skin, NS)?
Answer: > 30 µM

Question: What about the EC50 (COLO-741, COLO 741, skin, NS) of the same compound?
Answer: 11.6 µM

Question: What about the IC50 (COLO-741, COLO 741 cells) of the same compound?
Answer: > 30 µM

Question: What about the EC50 (COLO-741, COLO 741 cells) of the same compound?
Answer: 11.6 µM

Question: What about the IC50 (COLO-800, COLO-800, skin, NS) of the same compound?
Answer: > 30 µM

Question: What about the IC50 (COLO-800, cell line COLO-800 (skin, NS)) of the same compound?
Answer: > 30 µM

Question: And the IC50 (COLO-829, COLO 829, skin, NS)?
Answer: > 30 µM

Question: What about the IC50 (COLO-829, COLO 829 cells) of the same compound?
Answer: > 30 µM

Question: And the IC50 (COR-L23, COR-L23 (lung))?
Answer: > 30 µM

Question: What about the IC50 (COR-L23, COR-L23, lung, large_cell_carcinoma) of the same compound?
Answer: > 30 µM

Question: And the IC50 (COR-L47, COR-L47, lung, small_cell_carcinoma)?
Answer: > 30 µM

Question: What about the IC50 (COR-L47, COR-L47 cells) of the same compound?
Answer: > 30 µM

Question: What about the IC50 (COR-L88, COR-L88 (lung)) of the same compound?
Answer: > 30 µM

Question: What about the IC50 (COR-L88, COR-L88, lung, small_cell_carcinoma) of the same compound?
Answer: > 30 µM

Question: And the IC50 [4]?
Answer: 6.69 µM

Question: What about the EC50 [4] of the same compound?
Answer: 6.69 µM

Question: And the IC50 (Calu-1, Calu-1, lung, squamous_cell_carcinoma)?
Answer: > 30 µM

Question: And the IC50 (Calu-1, cell line Calu-1)?
Answer: > 30 µM

Question: What about the IC50 (Calu-3, Calu-3 (lung)) of the same compound?
Answer: > 30 µM

Question: And the IC50 (Calu-3, Calu-3, lung, adenocarcinoma)?
Answer: > 30 µM

Question: And the IC50 [5]?
Answer: > 30 µM

Question: What about the EC50 [5] of the same compound?
Answer: 11.6 µM

Question: And the IC50 (Calu-6, Calu-6 cells)?
Answer: > 30 µM

Question: What about the EC50 (Calu-6, Calu-6 cells) of the same compound?
Answer: 11.6 µM

Question: And the IC50 (Caov-3, Caov-3, ovary, adenocarcinoma)?
Answer: 15.3 µM

Question: And the IC50 (DBTRG-05MG, cell line DBTRG-05MG (central_nervous_system, astrocytoma_Grade_IV))?
Answer: > 30 µM

Question: And the IC50 (DBTRG-05MG, central_nervous_system, astrocytoma_Grade_IV)?
Answer: > 30 µM

Question: And the IC50 (DLD-1, DLD-1, large_intestine, adenocarcinoma)?
Answer: 21.7 µM

Question: What about the IC50 (DMS-79, DMS 79 (lung)) of the same compound?
Answer: > 30 µM

Question: What about the IC50 (DMS-79, cell line DMS 79, lung) of the same compound?
Answer: > 30 µM

Question: And the IC50 [6]?
Answer: 17.5 µM

Question: And the EC50 [6]?
Answer: 11.7 µM

Question: And the IC50 (DMS-114, cell line DMS 114)?
Answer: 17.5 µM

Question: What about the IC50 [7] of the same compound?
Answer: 16.4 µM

Question: And the EC50 [7]?
Answer: 13.7 µM

Question: What about the IC50 [8] of the same compound?
Answer: 13.1 µM

Question: What about the EC50 [8] of the same compound?
Answer: 12.9 µM

Question: What about the IC50 (DU-145, cell line DU 145, prostate) of the same compound?
Answer: 8.94 µM

Question: And the IC50 (DV-90, cell line DV-90, lung)?
Answer: 18 µM

Question: What about the EC50 (DV-90, cell line DV-90, lung) of the same compound?
Answer: 14.9 µM

Question: What about the IC50 (Daoy, Daoy (central_nervous_system)) of the same compound?
Answer: > 30 µM

Question: What about the IC50 (Daoy, central_nervous_system, NS) of the same compound?
Answer: > 30 µM

Question: And the IC50 (Detroit 562, Detroit 562, upper_aerodigestive_tract, NS)?
Answer: > 30 µM

Question: What about the IC50 (Detroit 562, cell line Detroit 562) of the same compound?
Answer: > 30 µM

Question: And the IC50 (EBC-1, cell line EBC-1, lung)?
Answer: 24 µM

Question: And the EC50 (EBC-1, cell line EBC-1, lung)?
Answer: 11.6 µM

Question: What about the IC50 (EFM-19, cell line EFM-19 (breast, ductal_carcinoma)) of the same compound?
Answer: > 30 µM

Question: What about the IC50 [9] of the same compound?
Answer: > 30 µM

Question: And the EC50 [9]?
Answer: 7.15 µM

Question: What about the IC50 (EOL1, cell line EOL-1, haematopoietic_and_lymphoid_tissue) of the same compound?
Answer: 11.8 µM

Question: And the IC50 (ESS-1, cell line ESS-1, endometrium)?
Answer: 18.7 µM

Question: And the IC50 [10]?
Answer: 17.8 µM

Question: What about the EC50 [10] of the same compound?
Answer: 12.9 µM

Question: And the IC50 (G-361, cell line G-361, skin)?
Answer: > 30 µM

Question: And the IC50 (G-361, cell line G-361)?
Answer: > 30 µM

Question: And the IC50 [11]?
Answer: 14.3 µM

Question: And the EC50 [11]?
Answer: 11.9 µM

Question: What about the EC50 (G-401, cell line G-401) of the same compound?
Answer: 11.9 µM

Question: What about the IC50 (G-402, cell line G-402, soft_tissue) of the same compound?
Answer: 9.9 µM

Question: And the IC50 (GA-10, cell line GA-10, haematopoietic_and_lymphoid_tissue)?
Answer: > 30 µM

Question: And the IC50 (GA-10, cell line GA-10)?
Answer: > 30 µM

Question: And the IC50 (GAMG, GAMG (central_nervous_system))?
Answer: > 30 µM

Question: And the IC50 (GAMG, cell line GAMG, central_nervous_system)?
Answer: > 30 µM

Question: And the IC50 (GCIY, cell line GCIY, stomach)?
Answer: 15.8 µM

Question: What about the IC50 (GMS-10, cell line GMS-10, central_nervous_system) of the same compound?
Answer: > 30 µM

Question: What about the IC50 (GMS-10, cell line GMS-10) of the same compound?
Answer: > 30 µM

Question: And the IC50 (Granta-519, cell line GRANTA-519, haematopoietic_and_lymphoid_tissue)?
Answer: > 30 µM

Question: What about the IC50 (Granta-519, cell line GRANTA-519) of the same compound?
Answer: > 30 µM

Question: What about the IC50 (HCC38, cell line HCC38, breast) of the same compound?
Answer: > 30 µM

Question: And the IC50 (HCC38, cell line HCC38)?
Answer: > 30 µM

Question: And the IC50 (HCC44, cell line HCC-44, lung)?
Answer: 22.8 µM

Question: And the IC50 (HCC95, cell line HCC-95, lung)?
Answer: 27.6 µM

Question: And the EC50 (HCC95, cell line HCC-95, lung)?
Answer: 26.7 µM

Question: And the IC50 (HCC827, cell line HCC827, lung)?
Answer: 19.3 µM

Question: And the IC50 [12]?
Answer: > 30 µM

Question: And the EC50 [12]?
Answer: 9.85 µM

— PMC4476799, “Englerin A Agonizes the TRPC4/C5 Cation Channels to Inhibit Tumor Cell Line Proliferation” (PLoS ONE, 2015)
